Experimental data: patent publication US7906507B2, “Oxadiazoanthracene compounds for the treatment of diabetes” (TransTech Pharma, Inc., priority 2008, dated 2011)

Target: T1, cloned human GLP-1 receptor (Homo sapiens, UniProt P43220)
T1 construct: expressed in transfected cells; host or cells: CHO or HEK-293 cells
Assay: Functional cell-based assay: cAMP functional assay
Details: for Emax: 0.5 h, percentage relative to maximal GLP-1-induced cAMP accumulation, na = not active in the assay, read-out: % activation
Procedure, shortened: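 Monolayer cells incubated 30 min at 37 °C with compounds (0.0001–100 μM) in IMDM containing 100 μM RO 20-1724 PDE inhibitor, 0.1% BSA and 2% DMSO. cAMP measured by HTRF.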

T1 sequence (P43220 24-463): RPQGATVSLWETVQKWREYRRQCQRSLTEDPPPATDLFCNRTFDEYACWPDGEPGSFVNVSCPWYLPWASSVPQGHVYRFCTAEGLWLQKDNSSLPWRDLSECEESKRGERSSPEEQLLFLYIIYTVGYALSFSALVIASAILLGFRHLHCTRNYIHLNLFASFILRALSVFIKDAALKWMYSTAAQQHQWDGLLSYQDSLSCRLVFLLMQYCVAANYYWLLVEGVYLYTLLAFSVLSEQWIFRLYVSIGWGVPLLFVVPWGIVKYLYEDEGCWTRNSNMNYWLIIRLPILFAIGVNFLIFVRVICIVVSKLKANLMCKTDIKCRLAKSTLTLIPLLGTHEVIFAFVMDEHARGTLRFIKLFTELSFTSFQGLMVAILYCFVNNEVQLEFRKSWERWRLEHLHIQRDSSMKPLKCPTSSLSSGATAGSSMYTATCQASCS

Structure (SMILES)	EC50 [µM]	Emax [%]
N#Cc1ccc(-c2ccc(C[C@H](NC(=O)[C@@H]3Cc4cc5c(cc4CN3CC#Cc3ccccc3)OC(c3ccc(OCc4ccc(Cl)c(Cl)c4)cc3)C(=O)N5)C(=O)O)cc2)cc1 (stereo partly drawn) [Example 7, (S)-3-(4′-Cyano-biphenyl-4-yl)-2-{[(S)-3-[4-(3,4-dichloro-benzyloxy)-phenyl]-2-oxo-6-(3-phenyl-prop-2-ynyl)-2,3,5,6,7,8-hexahydro-1H-4-oxa-1,6-diaza-anthracene-7-carbonyl]-amino}-propionic acid]	0.474	35
N#Cc1ccc(-c2ccc(C[C@H](NC(=O)[C@@H]3Cc4cc5c(cc4CN3C(=O)N3CCCCC3)OC(c3ccc(OCc4ccc(Cl)c(Cl)c4)cc3)C(=O)N5)C(=O)O)cc2)cc1 (stereo partly drawn) [Example 17, (S)-3-(4′-Cyano-biphenyl-4-yl)-2-{[(S)-3-[4-(3,4-dichloro-benzyloxy)-phenyl]-2-oxo-6-(piperidine-1-carbonyl)-2,3,5,6,7,8-hexahydro-1H-4-oxa-1,6-diaza-anthracene-7-carbonyl]-amino}-propionic acid]	0.699	80
N#Cc1ccc(-c2ccc(C[C@H](NC(=O)[C@@H]3Cc4cc5c(cc4CN3Cc3nccs3)OC(c3ccc(OCc4ccc(Cl)c(Cl)c4)cc3)C(=O)N5)C(=O)O)cc2)cc1 (stereo partly drawn) [Example 49, (S)-3-(4′-Cyano-biphenyl-4-yl)-2-({(S)-3-[4-(3,4-dichloro-benzyloxy)-phenyl]-2-oxo-6-thiazol-2-ylmethyl-2,3,5,6,7,8-hexahydro-1H-4-oxa-1,6-diaza-anthracene-7-carbonyl}-amino)-propionic acid]	0.557	57
Cc1ccc(-c2ccc(C[C@H](NC(=O)[C@@H]3Cc4cc5c(cc4CN3Cc3ccccn3)OC(c3ccc(OCc4ccc(Cl)c(Cl)c4)cc3)C(=O)N5)C(=O)O)cc2)cc1 (stereo partly drawn) [Example 85, (S)-2-({(S)-3-[4-(3,4-Dichloro-benzyloxy)-phenyl]-2-oxo-6-pyridin-2-ylmethyl-2,3,5,6,7,8-hexahydro-1H-4-oxa-1,6-diaza-anthracene-7-carbonyl}-amino)-3-(4′-methyl-biphenyl-4-yl)-propionic acid]	2	55
N#Cc1ccc(-c2ccc(C[C@H](NC(=O)[C@@H]3Cc4cc5c(cc4CN3C(=O)OC3CCC(O)C3)OC(c3ccc(OCc4ccc(Cl)c(Cl)c4)cc3)C(=O)N5)C(=O)O)cc2)cc1 (stereo partly drawn) [Example 2, (S)-7-[(S)-1-Carboxy-2-(4′-cyano-biphenyl-4-yl)-ethylcarbamoyl]-3-[4-(3,4-dichloro-benzyloxy)-phenyl]-2-oxo-1,2,3,5,7,8-hexahydro-4-oxa-1,6-diaza-anthracene-6-carboxylic acid 3-hydroxy-cyclopentyl ester]	0.67	7.8
N#Cc1ccc(-c2ccc(C[C@H](NC(=O)[C@@H]3Cc4cc5c(cc4CN3C(=O)c3cccs3)OC(c3ccc(OCc4ccc(Cl)c(Cl)c4)cc3)C(=O)N5)C(=O)O)cc2)cc1 (stereo partly drawn) [Example 28, (S)-3-(4′-Cyano-biphenyl-4-yl)-2-{[(S)-3-[4-(3,4-dichloro-benzyloxy)-phenyl]-2-oxo-6-(thiophene-2-carbonyl)-2,3,5,6,7,8-hexahydro-1H-4-oxa-1,6-diaza-anthracene-7-carbonyl]-amino}-propionic acid]	0.398	29
N#Cc1ccc(-c2ccc(C[C@H](NC(=O)[C@@H]3Cc4cc5c(cc4CN3C(=O)c3ccco3)OC(c3ccc(OCc4ccc(Cl)c(Cl)c4)cc3)C(=O)N5)C(=O)O)cc2)cc1 (stereo partly drawn) [Example 20, (S)-3-(4′-Cyano-biphenyl-4-yl)-2-{[(S)-3-[4-(3,4-dichloro-benzyloxy)-phenyl]-6-(furan-2-carbonyl)-2-oxo-2,3,5,6,7,8-hexahydro-1H-4-oxa-1,6-diaza-anthracene-7-carbonyl]-amino}-propionic acid]	0.417	83.5
N#Cc1ccc(-c2ccc(C[C@H](NC(=O)[C@@H]3Cc4cc5c(cc4CN3C(=O)c3cccc4ccccc34)OC(c3ccc(OCc4ccc(Cl)c(Cl)c4)cc3)C(=O)N5)C(=O)O)cc2)cc1 (stereo partly drawn) [Example 26, (S)-3-(4′-Cyano-biphenyl-4-yl)-2-{[(S)-3-[4-(3,4-dichloro-benzyloxy)-phenyl]-6-(naphthalene-1-carbonyl)-2-oxo-2,3,5,6,7,8-hexahydro-1H-4-oxa-1,6-diaza-anthracene-7-carbonyl]-amino}-propionic acid]	1.1	14
CCc1ccccc1CN1Cc2cc3c(cc2C[C@H]1C(=O)N[C@@H](Cc1ccc(-c2ccc(C#N)cc2)cc1)C(=O)O)N(C)C(=O)C(c1ccc(OCc2ccc(Cl)c(Cl)c2)cc1)O3 (stereo partly drawn) [Example 71, (S)-3-(4′-Cyano-biphenyl-4-yl)-2-{[(S)-3-[4-(3,4-dichloro-benzyloxy)-phenyl]-6-(2-ethyl-benzyl)-1-methyl-2-oxo-2,3,5,6,7,8-hexahydro-1H-4-oxa-1,6-diaza-anthracene-7-carbonyl]-amino}-propionic acid]	0.793	49
N#Cc1ccc(-c2ccc(C[C@H](NC(=O)[C@@H]3Cc4cc5c(cc4CN3C(=O)O[C@@H]3CCOC3)OC(c3ccc(OCc4ccc(Cl)c(Cl)c4)cc3)C(=O)N5)C(=O)O)cc2)cc1 (stereo partly drawn) [Example 19, (S)-7-[(S)-1-Carboxy-2-(4′-cyano-biphenyl-4-yl)-ethylcarbamoyl]-3-[4-(3,4-dichloro-benzyloxy)-phenyl]-2-oxo-1,2,3,5,7,8-hexahydro-4-oxa-1,6-diaza-anthracene-6-carboxylic acid (R)-(tetrahydro-furan-3-yl) ester]	0.181	69.9
CC(C)OC(=O)N1Cc2cc3c(cc2C[C@H]1C(=O)N[C@@H](Cc1ccc(-c2ccc(C#N)cc2)cc1)C(=O)O)N(C)C(=O)C(c1ccc(OCc2ccc(Cl)c(Cl)c2)cc1)O3 (stereo partly drawn) [Example 68, (S)-7-[(S)-1-Carboxy-2-(4′-cyano-biphenyl-4-yl)-ethylcarbamoyl]-3-[4-(3,4-dichloro-benzyloxy)-phenyl]-1-methyl-2-oxo-1,2,3,5,7,8-hexahydro-4-oxa-1,6-diaza-anthracene-6-carboxylic acid isopropyl ester]	1.1	33
Cc1noc(C)c1S(=O)(=O)N1Cc2cc3c(cc2C[C@H]1C(=O)N[C@@H](Cc1ccc(-c2ccc(C#N)cc2)cc1)C(=O)O)N(C)C(=O)C(c1ccc(OCc2ccc(Cl)c(Cl)c2)cc1)O3 (stereo partly drawn) [Example 96, (S)-3-(4′-Cyano-biphenyl-4-yl)-2-{[(S)-3-[4-(3,4-dichloro-benzyloxy)-phenyl]-6-(3,5-dimethyl-isoxazole-4-sulfonyl)-1-methyl-2-oxo-2,3,5,6,7,8-hexahydro-1H-4-oxa-1,6-diaza-anthracene-7-carbonyl]-amino}-propionic acid]	0.362	8.5
Cn1ccnc1CN1Cc2cc3c(cc2C[C@H]1C(=O)N[C@@H](Cc1ccc(-c2ccc(C#N)cc2)cc1)C(=O)O)NC(=O)C(c1ccc(OCc2ccc(Cl)c(Cl)c2)cc1)O3 (stereo partly drawn) [Example 48, (S)-3-(4′-Cyano-biphenyl-4-yl)-2-{[(S)-3-[4-(3,4-dichloro-benzyloxy)-phenyl]-6-(1-methyl-1H-imidazol-2-ylmethyl)-2-oxo-2,3,5,6,7,8-hexahydro-1H-4-oxa-1,6-diaza-anthracene-7-carbonyl]-amino}-propionic acid]	0.895	64
CN(C)C(=O)N1Cc2cc3c(cc2C[C@H]1C(=O)N[C@@H](Cc1ccc(-c2ccc(C#N)cc2)cc1)C(=O)O)NC(=O)C(c1ccc(OCc2ccc(Cl)c(Cl)c2)cc1)O3 (stereo partly drawn) [Example 33, (S)-3-(4′-Cyano-biphenyl-4-yl)-2-({(S)-3-[4-(3,4-dichloro-benzylozy)-phenyl]-2-oxo-6-dimethylcarbamoyl-2-oxo-2,3,5,6,7,8-hexahydro-1H-4-oxa-1,6-diaza-anthracene-7-carbonyl}-amino)-propionic acid]	1.3	7
N#Cc1ccc(-c2ccc(C[C@H](NC(=O)[C@@H]3Cc4cc5c(cc4CN3C(=O)c3ccc(F)cc3)OC(c3ccc(OCc4ccc(Cl)c(Cl)c4)cc3)C(=O)N5)C(=O)O)cc2)cc1 (stereo partly drawn) [Example 22, (S)-3-(4′-Cyano-biphenyl-4-yl)-2-{[(S)-3-[4-(3,4-dichloro-benzyloxy)-phenyl]-6-(4-fluoro-benzoyl)-2-oxo-2,3,5,6,7,8-hexahydro-1H-4-oxa-1,6-diaza-anthracene-7-carbonyl]-amino}-propionic acid]	0.891	73.5
N#Cc1ccc(-c2ccc(C[C@H](NC(=O)[C@@H]3Cc4cc5c(cc4CN3C(=O)C3CCCC3)OC(c3ccc(OCc4ccc(Cl)c(Cl)c4)cc3)C(=O)N5)C(=O)O)cc2)cc1 (stereo partly drawn) [Example 16, (S)-3-(4′-Cyano-biphenyl-4-yl)-2-({(S)-6-cyclopentanecarbonyl-3-[4-(3,4-dichloro-benzyloxy)-phenyl]-2-oxo-2,3,5,6,7,8-hexahydro-1H-4-oxa-1,6-diaza-anthracene-7-carbonyl}-amino)-propionic acid]	0.657	78
N#Cc1ccc(-c2ccc(C[C@H](NC(=O)[C@@H]3Cc4cc5c(cc4CN3Cc3ccccc3)OC(c3ccc(OCc4cnc(Cl)c(Cl)c4)cc3)C(=O)N5)C(=O)O)cc2)cc1 (stereo partly drawn) [Example 65, (S)-2-({(8)-6-Benzyl-3-[4-(5,6-dichloro-pyridin-3-ylmethoxy)-phenyl]-2-oxo-2,3,5,6,7,8-hexahydro-1H-4-oxa-1,6-diaza-anthracene-7-carbonyl}-amino)-3-(4′-cyano-biphenyl-4-yl)-propionic acid]	0.22	32
N#Cc1ccc(-c2ccc(C[C@H](NC(=O)[C@@H]3Cc4cc5c(cc4CN3C(=O)c3ccccc3)OC(c3ccc(OCc4c(Cl)cccc4Cl)cc3)C(=O)N5)C(=O)O)cc2)cc1 (stereo partly drawn) [Example 57, (S)-2-({(S)-6-Benzoyl-3-[4-(2,6-dichloro-benzyloxy)-phenyl]-2-oxo-2,3,5,6,7,8-hexahydro-1H-4-oxa-1,6-diaza-anthracene-7-carbonyl}-amino)-3-(4′-cyano-biphenyl-4-yl)-propionic acid]	0.57	20
